Test results as given in patent publication US20240041042A1, “1-(PYRIDYL)-5-AZINYLPYRAZOLE DERIVATIVES, AND THEIR USE FOR CONTROL OF UNDESIRED PLANT GROWTH” (Bayer Aktiengesellschaft, priority 2020, published 2024).
Where two headings read alike, the source gives them in different places.

Assays:
Format in all cases: in vivo
Setaria viridis (SETVI) [1] = assay: Post-emergence herbicidal action against SETVI
Method: (§1) Seeds of monocotyledonous and dicotyledonous weeds and crop plants are placed in sandy loam in plastic or organic planting pots, covered with soil and cultivated in a greenhouse under controlled growth conditions. 2 to 3 weeks after sowing, the test plants are treated at the one-leaf stage. The compounds of the invention, formulated in the form of wettable powders (WP) or as emulsion concentrates (EC), are then sprayed onto the green parts of the plants as aqueous suspension or emulsion with addition of 0.5% additive at a water application rate of 600 l/ha (converted). After the test plants have been kept in the greenhouse under optimum growth conditions for about 3 weeks, the activity of the preparations is rated visually in comparison to untreated controls. For example, 100% activity=the plants have died, 0% activity=like control plants.
(§2) Tables B1 to B13 below show the effects of selected compounds of the general formula (I) according to Table 1 on various harmful plants and at an application rate corresponding to 320 g/ha or lower, which were obtained by the experimental procedure mentioned above. The appendices “a”, “b” and “c” give differentiation by dosage used with otherwise the same harmful plants tested.

[2] = system: Echinochloa crus-galli (ECHCG); assay: Pre-emergence herbicidal action against ECHCG
Source text: (§3) Seeds of monocotyledonous and dicotyledonous weed plants and crop plants are placed in plastic or organic planting pots and covered with soil. The compounds of the invention, formulated in the form of wettable powders (WP) or as emulsion concentrates (EC), are then applied to the surface of the covering soil as aqueous suspension or emulsion with addition of 0.5% additive at a water application rate equivalent to 600 l/ha. After the treatment, the pots are placed in a greenhouse and kept under good growth conditions for the trial plants. After about 3 weeks, the effect of the preparations is scored visually in comparison with untreated controls as percentages. For example, 100% activity=the plants have died, 0% activity=like control plants.
(§4) Tables A1 to A13 below show the effects of selected compounds of the general formula (I) on various harmful plants and at an application rate corresponding to 320 g/ha or lower, which were obtained by the experimental procedure mentioned above. The appendices “a”, “b” and “c” give differentiation by dosage used with otherwise the same harmful plants tested.

[3] = system: Matricaria inodora (MATIN); assay: Post-emergence herbicidal action against MATIN
Method: as §1, §2

[4] = system: Alopecurus myosuroides (ALOMY); assay: Pre-emergence herbicidal action against ALOMY; details: scored visually after about 3 weeks, 100% = plants have died
Source text: as §3, §4

Oryza sativa (ORYSA) = details: crop plant compatibility
Method: as §1
(§5) The observed effects on selected crop plants are reported here in comparison to the untreated controls (values in %). The appendices “a”, “b” and “c” give differentiation by dosage used with otherwise the same crop plants tested.

Zea mays (ZEAMX) = details: for Post-emergence action against ZEAMX in %: crop plant compatibility, 80 g/ha, effect vs untreated controls
Method: as §1, §5

[5] = system: Amaranthus retroflexus (AMARE); assay: Post-emergence herbicidal action against AMARE
Method: as §1, §2

[6] = system: Pharbitis purpurea (PHBPU); assay: Pre-emergence herbicidal action against PHBPU; details: dosage 320 g/ha
Source text: as §3, §4

Lolium rigidum (LOLRI) [7] = assay: Pre-emergence herbicidal action against LOLRI
Source text: as §3, §4

[8] = system: Pharbitis purpurea (PHBPU); assay: Post-emergence herbicidal action against PHBPU
Method: as §1, §2

Viola tricolor (VIOTR) [9] = assay: Pre-emergence herbicidal action against VIOTR
Source text: as §3, §4

[10] = system: Alopecurus myosuroides (ALOMY); assay: Post-emergence herbicidal action against ALOMY; details: visual rating about 3 weeks after treatment vs untreated controls (100% = plants have died, 0% = like control plants)
Method: as §1, §2

[11] = system: Matricaria inodora (MATIN); assay: Pre-emergence herbicidal action against MATIN; details: dosage 320 g/ha
Source text: as §3, §4

[12] = system: Echinochloa crus-galli (ECHCG); assay: Post-emergence herbicidal action against ECHCG
Method: as §1, §2

Viola tricolor (VIOTR) [13] = assay: Post-emergence herbicidal action against VIOTR
Method: as §1, §2

[14] = system: Amaranthus retroflexus (AMARE); assay: Pre-emergence herbicidal action against AMARE; details: visual scoring after about 3 weeks vs untreated controls
Source text: as §3, §4

[15] = system: Polygonum convolvulus (POLCO); assay: Post-emergence herbicidal action against POLCO
Method: as §1, §2

Setaria viridis (SETVI) [16] = assay: Pre-emergence herbicidal action against SETVI
Source text: as §3, §4

Avena fatua (AVEFA) [17] = assay: Post-emergence herbicidal action against AVEFA; details: visual rating about 3 weeks after treatment
Method: as §1, §2

Avena fatua (AVEFA) [18] = assay: Pre-emergence herbicidal action against AVEFA; details: visual scoring after about 3 weeks vs untreated controls
Source text: as §3, §4

[19] = system: Verconica persica (VERPE); assay: Post-emergence herbicidal action against VERPE
Method: as §1, §2

[20] = system: Polygonum convolvulus (POLCO); assay: Pre-emergence herbicidal action against POLCO
Source text: as §3, §4

[21] = system: Verconica persica (VERPE); assay: Pre-emergence herbicidal action against VERPE
Source text: as §3, §4

Lolium rigidum (LOLRI) [22] = assay: Post-emergence herbicidal action against LOLRI; details: dosage 320 g/ha
Method: as §1, §2

[23] = system: Abutilon theophrasti (ABUTH); assay: Post-emergence herbicidal action against ABUTH; details: 320 g/ha, visual rating about 3 weeks after treatment vs untreated controls (100% = plants have died, 0% = like control plants)
Method: as §1, §2

[24] = 80 g/ha, effect in comparison to untreated controls
[25] = 80 g/ha, visual rating about 3 weeks after treatment vs untreated controls (100% = plants have died, 0% = like control plants)
[26] = 320 g/ha, visual rating about 3 weeks after treatment

Row | Compound | Post-emergence action against SETVI in % (Setaria viridis (SETVI) [1]; dosage 320 g/ha) | Pre-emergence action against ECHCG in % ([2]; dosage 320 g/ha) | Post-emergence action against MATIN in % ([3]; dosage 320 g/ha) | Pre-emergence action against ALOMY ([4]; 320 g/ha) | Post-emergence action against ORYSA in % (Oryza sativa (ORYSA); [24]) | Post-emergence action against ZEAMX in % (Zea mays (ZEAMX)) | Post-emergence action against AMARE in % [5, 25] | Post-emergence action against AMARE in % [5, 26] | Pre-emergence action against PHBPU in % [6] | Pre-emergence action against LOLRI in % (Lolium rigidum (LOLRI) [7]; dosage 320 g/ha) | Post-emergence action against PHBPU in % ([8]; dosage 320 g/ha) | Pre-emergence action against VIOTR in % (Viola tricolor (VIOTR) [9]; 320 g/ha, Viola tricolor) | Pre-emergence action against VIOTR in % (Viola tricolor (VIOTR) [9]; dosage 80 g/ha) | Post-emergence action against ALOMY in % ([10]; 320 g/ha) | Pre-emergence action against MATIN in % [11] | Post-emergence action against ECHCG in % ([12]; dosage 80 g/ha) | Post-emergence action against ECHCG in % ([12]; dosage 320 g/ha) | Post-emergence action against VIOTR in % (Viola tricolor (VIOTR) [13]; 320 g/ha) | Pre-emergence action against AMARE in % ([14]; 320 g/ha) | Pre-emergence action against SETVI in % (Setaria viridis (SETVI) [16]; dosage 320 g/ha) | other results
1 | O=C(O)CSc1nn(-c2ccccn2)c(-c2cncc(F)c2)c1C1CC1 [Example I-153] | 80% | 100% | 80% | 90% | 0% | 10% | 90% | 90% | 80% | 80% | 90% | 100% | 90% | 80% | 80% | 80% | 90% | 80% | 100% | 90% | Pre-emergence action against ECHCG in % ([2]; dosage 80 g/ha): 80%; Post-emergence action against PHBPU in % ([8]; dosage 80 g/ha): 80%; Post-emergence action against POLCO in % ([15]; dosage 320 g/ha): 80%; Post-emergence action against AVEFA in % (Avena fatua (AVEFA) [17]; 80 g/ha): 80%; Post-emergence action against AVEFA in % (Avena fatua (AVEFA) [17]; 320 g/ha): 90%
2 | COC(=O)CCOC(=O)COc1nn(-c2ccccn2)c(-c2ccc(F)nc2)c1Br [Example I-116] | – | 100% | – | 100% | 10% | – | 90% | – | 90% | 100% | – | 90% | – | – | 90% | 80% | – | – | 100% | 100% | Post-emergence action against SETVI in % (Setaria viridis (SETVI) [1]; dosage 80 g/ha): 80%; Pre-emergence action against AVEFA in % (Avena fatua (AVEFA) [18]; 320 g/ha): 90%; Post-emergence action against MATIN in % ([3]; dosage 80 g/ha): 80%; Post-emergence action against VERPE in % ([19]; dosage 80 g/ha): 80%; Pre-emergence action against ALOMY ([4]; 80 g/ha): 90%; Post-emergence action against ORYSA in % (Oryza sativa (ORYSA); 20 g/ha, effect vs untreated controls): 10%; Post-emergence action against ZEAMX in % (crop plant compatibility) (Zea mays (ZEAMX); 20 g/ha, ZEAMX, effect in comparison to untreated controls): 20%; Post-emergence action against ALOMY in % ([10]; 80 g/ha): 90%; Pre-emergence action against POLCO in % ([20]; dosage 320 g/ha): 90%; Pre-emergence action against AMARE in % ([14]; 80 g/ha): 90%; Pre-emergence action against VERPE in % ([21]; dosage 80 g/ha): 90%; Pre-emergence action against VERPE in % ([21]; dosage 320 g/ha): 90%; Pre-emergence action against SETVI in % (Setaria viridis (SETVI) [16]; dosage 80 g/ha): 90%
3 | CC(Oc1nn(-c2ccccn2)c(-c2ccc(F)nc2)c1C(F)(F)F)C(=O)O (stereo not shown) [Example I-94] | 90% | 80% | 80% | 100% | 20% | 20% | 90% | 90% | – | 100% | 80% | 100% | 100% | 100% | 100% | – | 90% | 90% | 100% | 100% | Post-emergence action against SETVI in % (Setaria viridis (SETVI) [1]; dosage 80 g/ha): 80%; Post-emergence action against LOLRI in % (Lolium rigidum (LOLRI) [22]): 100%; Post-emergence action against ABUTH in % [23]: 80%; Pre-emergence action against AVEFA in % (Avena fatua (AVEFA) [18]; 80 g/ha): 80%; Pre-emergence action against AVEFA in % (Avena fatua (AVEFA) [18]; 320 g/ha): 90%; Post-emergence action against VERPE in % ([19]; 320 g/ha, VERPE): 90%; Pre-emergence action against ALOMY ([4]; 80 g/ha): 80%; Pre-emergence action against LOLRI in % (Lolium rigidum (LOLRI) [7]; dosage 80 g/ha): 100%; Post-emergence action against ALOMY in % ([10]; 80 g/ha): 80%; Pre-emergence action against POLCO in % ([20]; dosage 80 g/ha): 90%; Pre-emergence action against POLCO in % ([20]; dosage 320 g/ha): 90%; Post-emergence action against VIOTR in % (Viola tricolor (VIOTR) [13]; 80 g/ha): 90%; Pre-emergence action against AMARE in % ([14]; 80 g/ha): 80%; Pre-emergence action against VERPE in % ([21]; dosage 320 g/ha): 90%; Post-emergence action against POLCO in % ([15]; dosage 80 g/ha): 80%; Post-emergence action against POLCO in % ([15]; dosage 320 g/ha): 90%; Post-emergence action against AVEFA in % (Avena fatua (AVEFA) [17]; 80 g/ha): 80%; Post-emergence action against AVEFA in % (Avena fatua (AVEFA) [17]; 320 g/ha): 100%
